# What was measured:
# [1] = Tmax in athymic nude mouse at 8 to 75 mg/kg, sc by LC/MS analysis; type: ADME, organism-based; settings: in vivo, dose 8-75 mg/kg
# [2] = Metabolic stability in rat liver microsomes assessed as half-life; type: ADME, Microsome
# [3] = Cmax in athymic nude mouse at 25 mg/kg, sc measured after 24 hrs by LC/MS analysis; type: ADME, organism-based; settings: in vivo
# [4] = Bioavailability in mouse at 50 mg/kg, sc; type: ADME, organism-based; settings: in vivo
# in vitro [5] = settings: mouse, liver microsomes
# [6] = Cmax in athymic nude mouse at 8 mg/kg, sc measured after 24 hrs by LC/MS analysis; type: ADME, organism-based; settings: in vivo
# [7] = Cmax in athymic nude mouse at 75 mg/kg, sc measured after 24 hrs by LC/MS analysis; type: ADME, organism-based; settings: in vivo
# in vitro [8] = settings: human, liver microsomes
# in vitro [9] = settings: mouse, liver microsomes; remark: listed apart in the source
# in vitro [10] = settings: human, liver microsomes; remark: listed apart in the source
# in vitro [11] = settings: rat, liver microsomes
# [12] = Intrinsic clearance in mouse; type: ADME, organism-based; settings: in vivo
Tmax [1] [h],half-life [2] [h],Cmax [3] [µM],bioavailability [4] [%],half-life (in vitro [5]) [h],Cmax [6] [µM],Cmax [7] [µM],half-life (in vitro [8]) [h],remaining at 10 min (in vitro [9]) [%],remaining at 10 min (in vitro [10]) [%],remaining at 10 min (in vitro [11]) [%],CLint scaled [12] [mL/min/kg],SMILES
–,–,–,–,1.42,–,–,1.4,85,88,100,–,CCOc1cc(-c2ccc(N3CCC(CN4CCN(C(=O)CCCCN5CCC(c6ccc7c(c6)CN(C6CCC(=O)NC6=O)C7=O)CC5)CC4)(NC(=O)c4cc(F)ccc4F)CC3)nc2)c2c(C#N)cnn2c1 (stereo not given)
–,–,–,–,0.95,–,–,1.02,82,85,94,–,CCOc1cc(-c2ccc(N3CCC(CN4CCN(C(=O)CCN5CCC(c6ccc7c(c6)CN(C6CCC(=O)NC6=O)C7=O)CC5)CC4)(NC(=O)c4cc(F)ccc4F)CC3)nc2)c2c(C#N)cnn2c1 (stereo not given)
–,–,–,–,–,–,–,–,68,10,81,–,CCOc1cc(-c2ccc(N3CCC(COCC(=O)N4CCC(CN5CCN(c6ccc7c(c6)CN(C6CCC(=O)NC6=O)C7=O)CC5)CC4)(NC(=O)c4cc(F)ccc4F)CC3)nc2)c2c(C#N)cnn2c1 (stereo not given)
–,–,–,–,0.467,–,–,0.133,70,40,84,32,CCOc1cc(-c2ccc(N3CCC(CN4CCN(C(=O)CCCCCCN5CCN(c6ccc7c(c6)CN(C6CCC(=O)NC6=O)C7=O)CC5)CC4)(NC(=O)c4cc(F)ccc4F)CC3)nc2)c2c(C#N)cnn2c1 (stereo not given)
–,–,–,–,> 2,–,–,> 2,80,100,100,–,CCOc1cc(-c2ccc(N3CCC(CN4CCN(C(=O)CCN5CCC(c6ccc7c(c6)C(=O)N([C@H]6CCC(=O)NC6=O)C7)CC5)CC4)(NC(=O)c4cc(F)ccc4F)CC3)nc2)c2c(C#N)cnn2c1

# Continued, compound first:
SMILES,Tmax [1] [h],half-life [2] [h],Cmax [3] [µM],bioavailability [4] [%],half-life (in vitro [5]) [h],Cmax [6] [µM],Cmax [7] [µM],half-life (in vitro [8]) [h],remaining at 10 min (in vitro [9]) [%],remaining at 10 min (in vitro [10]) [%],remaining at 10 min (in vitro [11]) [%],CLint scaled [12] [mL/min/kg]
CCOc1cc(-c2ccc(N3CCC(CN4CCN(C(=O)C5CC(N6CCC(c7ccc8c(c7)C(=O)N(C7CCC(=O)NC7=O)C8)CC6)C5)CC4)(NC(=O)c4cc(F)ccc4F)CC3)nc2)c2c(C#N)cnn2c1 (stereo not given),1,> 2,4.3,30,> 2,0.708,8.09,1.48,–,–,–,–
CCOc1cc(-c2ccc(N3CCC(CN4CCN(C(=O)CCCCCCN5CCC(c6ccc7c(c6)CN(C6CCC(=O)NC6=O)C7=O)CC5)CC4)(NC(=O)c4cc(F)ccc4F)CC3)nc2)c2c(C#N)cnn2c1 (stereo not given),–,–,–,–,1.55,–,–,0.583,80,78,88,–
CCOc1cc(-c2ccc(N3CCC(CN4CCN(C(=O)CCN5CCC(c6ccc7c(N8CCC(=O)NC8=O)nn(C)c7c6)CC5)CC4)(NC(=O)c4cc(F)ccc4F)CC3)nc2)c2c(C#N)cnn2c1,–,–,–,–,1.73,–,–,0.7,88,81,75,–
CCOc1cc(-c2ccc(N3CCC(CN4CCN(C(=O)C5CC6(C5)CC(N5CCN(c7ccc8c(c7)CN(C7CCC(=O)NC7=O)C8=O)CC5)C6)CC4)(NC(=O)c4cc(F)ccc4F)CC3)nc2)c2c(C#N)cnn2c1 (stereo not given),–,–,–,–,1.53,–,–,> 2,81,84,100,–
CCOc1cc(-c2ccc(N3CCC(CN4CCN(C(=O)CCN5CCC(c6ccc7c(c6)C(=O)N(C6CCC(=O)NC6=O)C7)CC5)CC4)(NC(=O)c4ncccc4F)CC3)nc2)c2c(C#N)cnn2c1 (stereo not given),–,–,–,–,–,–,–,–,100,79,97,–
COc1ccc(CN2[C@@H]3C[C@H]2CN(c2ccc(-c4cc(OCC(C)(C)O)cn5ncc(C#N)c45)cn2)C3)cn1,–,–,–,–,–,–,–,–,63,58,89,–
CCOc1cc(-c2ccc(N3CCC(CN4CCN(C(=O)CCN5CCC(c6ccc7c(c6)C(=O)N(C6CCC(=O)NC6=O)C7)CC5)CC4)(NC(=O)c4cc(F)ccc4F)CC3)nc2)c2c(C#N)cnn2c1 (stereo not given),–,–,–,–,0.933,–,–,0.867,85,82,89,–
CCOc1cc(-c2ccc(N3CCC(CN4CCN(C(=O)CCN5CCC(c6ccc7c(c6)C(=O)N([C@@H]6CCC(=O)NC6=O)C7)CC5)CC4)(NC(=O)c4cc(F)ccc4F)CC3)nc2)c2c(C#N)cnn2c1,–,–,–,–,> 2,–,–,1.28,100,98,100,–
CCOc1cc(-c2ccc(N3CCC(CN4CCC(C(=O)N5CC(N6CCC(c7ccc8c(c7)C(=O)N(C7CCC(=O)NC7=O)C8)CC6)C5)CC4)(NC(=O)c4cc(F)ccc4F)CC3)nc2)c2c(C#N)cnn2c1 (stereo not given),–,–,–,–,1.57,–,–,> 2,–,–,–,–

# — ChEMBL document CHEMBL6074657, “Discovery and Synthesis of Heterobifunctional Degraders of Rearranged during Transfection (RET) Kinase” (J Med Chem, 2024)
